System: 20-HETE formation (CYP4) in RLM
Test: Inhibition of 20-HETE formation at 250 or 500 nM in RLM microsomal incubations
Format: biochemical, rat
Details: 500 nM compound; RLM 300 μg/ml
Method in brief: (§1)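 Liver or kidney microsomes (300 μg/ml) or rCYP4F2 (25 pmol/mL) were incubated with 100 μM arachidonic acid, 1 mM NADPH and compound at 250 or 500 nM in 0.12 M potassium phosphate/5 mM MgCl2 for 20 min at 37 °C. 20-HETE was measured by UPLC-MS/MS against 20-HETE-d6 and expressed as % of vehicle (n=3).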

Going from `COc1ccc(C2CCN(c3cn[nH]c3)CC2)cc1F` [Compound 44, 4-(3-Fluoro-4-methoxyphenyl)-1-(1H-pyrazol-4-yl)piperidine] to `COc1ccc(C2CCN(c3cn[nH]c3)CC2)c(F)c1` [Compound 47, 4-(2-Fluoro-4-methoxyphenyl)-1-(1H-pyrazol-4-yl)piperidine], the “RLM % inh. @ 500 nM” value rises from 42.00% to 63.00%.

Compared with `CCS(=O)(=O)c1ccc(C2CCN(c3cn[nH]c3)CC2)cc1` [Compound 52, 4-(4-(Ethylsulfonyl)phenyl)-1-(1H-pyrazol-4-yl)piperidine], `CCS(=O)(=O)c1ccc(C2CCN(c3ccn[nH]3)CC2)cc1` [Compound 58, 4-(4-(Ethylsulfonyl)phenyl)-1-(1H-pyrazol-5-yl)piperidine] is lower in “RLM % inh. @ 500 nM” value: 13.40% for the first, 0.00% for the second.

For `COc1cncc(C2CCN(c3cn[nH]c3)CC2)c1` [Compound 59, 3-(1-(1H-Pyrazol-4-yl)piperidin-4-yl)-5-methoxypyridine], the “RLM % inh. @ 500 nM” value was 64.40%.

System: 20-HETE formation (CYP4) in RLM
Test: IC50 determination, 20-HETE formation in RLM
Format: biochemical, rat
Details: RLM 300 μg/ml, AA 100 μM, 12 concentrations
Description: (§2) Microsomal incubations contained HLM, RLM (300 μg/ml), AA (100 μM), NADPH (1 mM) and test compounds at 12 concentrations (0.1 nM-50 μM) in a 1 ml total volume in microsomal incubation buffer (0.12 M potassium phosphate buffer containing 5 mM magnesium chloride). Reaction was started by adding NADPH to the incubates and was carried out at 37° C. in a shaking water bath for 20 min. Reaction was stopped by placing tubes on ice, followed by adding 12.5 μl 20-HETE-d6 as internal standard to each sample. Microsomal incubations were extracted with 3 ml ethyl ether twice, dried down under nitrogen gas and reconstituted in 125 μl 80:20 methanol:deionized H2O for analysis. 20-HETE formation was quantified using the validated UPLC-MS/MS assay described above and normalized by vehicle group. HET0016 (250 nM) was used as positive control. Incubates without NADPH group served as the negative control. IC50 was determined by fitting the dose-response curve using Graphpad Prism nonlinear regression.

Compound `COc1ccc(C2CCN(c3cn[nH]c3)CC2)cc1F` [Compound 44, 4-(3-Fluoro-4-methoxyphenyl)-1-(1H-pyrazol-4-yl)piperidine] has an IC50 of 0.34 µM.

System: not listed separately
Test: Turbidometric solubility determination
Format: physicochemical
Details: PBS with 1% DMSO, aqueous buffer, kinetic from dmso stock, room temperature, OD620, read-out: Max Solub
Method in brief: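 Kinetic turbidimetric solubility: DMSO stocks diluted 1:100 into PBS in triplicate to give 0–600 μM in 1% DMSO. Shaken 2 h at room temperature, then OD620 read. Solubility limit taken as the concentration giving a statistically significant absorbance rise above background.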

Compared with `CCS(=O)(=O)c1ccc(C2CCN(c3cn[nH]c3)CC2)cc1` [Compound 52, 4-(4-(Ethylsulfonyl)phenyl)-1-(1H-pyrazol-4-yl)piperidine], `CCS(=O)(=O)c1ccc(C2CCN(c3ccn[nH]3)CC2)cc1` [Compound 58, 4-(4-(Ethylsulfonyl)phenyl)-1-(1H-pyrazol-5-yl)piperidine] is 1.6-fold higher in solubility at 2 h: 244 µM for the first, 394 µM for the second.

In the case of `COc1cncc(C2CCN(c3cn[nH]c3)CC2)c1` [Compound 59, 3-(1-(1H-Pyrazol-4-yl)piperidin-4-yl)-5-methoxypyridine], the solubility at 2 h is reported as > 600 µM.

Same assay, conditions: PBS with 1% DMSO, aqueous buffer, kinetic from dmso stock, room temperature, read-out: Solubility_ug/mL

Going from `CCS(=O)(=O)c1ccc(C2CCN(c3cn[nH]c3)CC2)cc1` [Compound 52, 4-(4-(Ethylsulfonyl)phenyl)-1-(1H-pyrazol-4-yl)piperidine] to `CCS(=O)(=O)c1ccc(C2CCN(c3ccn[nH]3)CC2)cc1` [Compound 58, 4-(4-(Ethylsulfonyl)phenyl)-1-(1H-pyrazol-5-yl)piperidine], the solubility at 2 h rises from 78 µg/mL to 126 µg/mL (1.6-fold).

`COc1cncc(C2CCN(c3cn[nH]c3)CC2)c1` [Compound 59, 3-(1-(1H-Pyrazol-4-yl)piperidin-4-yl)-5-methoxypyridine] showed a solubility at 2 h of 155 µg/mL.

Target: T1, rCYP4F2 (Homo sapiens, UniProt P78329)
T1 sequence (P78329 5-520): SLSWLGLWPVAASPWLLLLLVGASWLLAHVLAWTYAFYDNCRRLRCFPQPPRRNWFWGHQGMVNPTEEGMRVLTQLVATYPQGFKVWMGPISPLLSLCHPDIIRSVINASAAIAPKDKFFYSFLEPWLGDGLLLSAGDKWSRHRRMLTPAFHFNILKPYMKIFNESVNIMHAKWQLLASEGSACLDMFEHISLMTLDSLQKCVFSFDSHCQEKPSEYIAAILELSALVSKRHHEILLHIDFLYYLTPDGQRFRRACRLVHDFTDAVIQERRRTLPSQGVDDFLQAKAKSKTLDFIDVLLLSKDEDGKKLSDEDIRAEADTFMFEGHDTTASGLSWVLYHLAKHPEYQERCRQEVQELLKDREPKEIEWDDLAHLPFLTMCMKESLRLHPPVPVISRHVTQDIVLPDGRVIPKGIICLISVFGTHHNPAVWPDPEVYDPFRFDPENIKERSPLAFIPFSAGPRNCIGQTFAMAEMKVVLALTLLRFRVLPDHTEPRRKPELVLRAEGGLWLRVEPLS
Test: Inhibition of 20-HETE formation at 250 or 500 nM in rCYP4F2 incubations
Format: biochemical
Details: 500 nM compound; rCYP4F2 25 pmol/mL; read-out: rCYP4F2 % inh. @ 500 nM
Method in brief: as §1

First: COc1ccc(C2CCN(c3cn[nH]c3)CC2)cc1F [Compound 44, 4-(3-Fluoro-4-methoxyphenyl)-1-(1H-pyrazol-4-yl)piperidine]
Second: COc1ccc(C2CCN(c3cn[nH]c3)CC2)c(F)c1 [Compound 47, 4-(2-Fluoro-4-methoxyphenyl)-1-(1H-pyrazol-4-yl)piperidine]
The inhibition at 0.5 µM of the first is lower: 86% for the first, 88% for the second.

Compared with `CCS(=O)(=O)c1ccc(C2CCN(c3cn[nH]c3)CC2)cc1` [Compound 52, 4-(4-(Ethylsulfonyl)phenyl)-1-(1H-pyrazol-4-yl)piperidine], `CCS(=O)(=O)c1ccc(C2CCN(c3ccn[nH]3)CC2)cc1` [Compound 58, 4-(4-(Ethylsulfonyl)phenyl)-1-(1H-pyrazol-5-yl)piperidine] is lower in inhibition at 0.5 µM: 74.8% for the first, 70.6% for the second.

`COc1cncc(C2CCN(c3cn[nH]c3)CC2)c1` [Compound 59, 3-(1-(1H-Pyrazol-4-yl)piperidin-4-yl)-5-methoxypyridine] gave an inhibition at 0.5 µM of 73.7%.

System: not listed separately
Test: HLM stability determination
Format: in vitro ADME, human
Details: HLM 500 μg/ml, 1 μM compound, NADPH, relative to 0 min
Description: HLM stability determinations shown in Table 3 were obtained as follows. Microsomal incubates contained HLM (500 μg/ml), test compounds (1 μM) and NADPH (1.3 mM) in a 1 ml total volume of microsomal incubation buffer (0.12 M potassium phosphate buffer containing 5 mM magnesium chloride). Reaction was started by adding NADPH to the incubates and was carried out at 37° C. in a shaking water bath for 60 min. At 0, 15, 30, 45, 60 min, a 50 μl aliquot of incubates was taken out and reaction was stopped by adding aliquot into 200 μl ice-cold acetonitrile. After centrifugation at 14000×g for 5 min, 200 μl supernatant was taken out for UPLC-MS/MS analysis as described above. Values at 0 min were used as corresponding control for test compounds. Varapamil, metoprolol, and warfarin, categorized as fast, moderate and slow metabolism, were used as positive control. Incubates without NADPH group served as negative control.

`COc1ccc(C2CCN(c3cn[nH]c3)CC2)cc1F` [Compound 44, 4-(3-Fluoro-4-methoxyphenyl)-1-(1H-pyrazol-4-yl)piperidine] and `COc1ccc(C2CCN(c3cn[nH]c3)CC2)c(F)c1` [Compound 47, 4-(2-Fluoro-4-methoxyphenyl)-1-(1H-pyrazol-4-yl)piperidine] are the same in “Stability HLM % @ 30 min” value: 100% for the first, 100% for the second.

Going from `CCS(=O)(=O)c1ccc(C2CCN(c3cn[nH]c3)CC2)cc1` [Compound 52, 4-(4-(Ethylsulfonyl)phenyl)-1-(1H-pyrazol-4-yl)piperidine] to `CCS(=O)(=O)c1ccc(C2CCN(c3ccn[nH]3)CC2)cc1` [Compound 58, 4-(4-(Ethylsulfonyl)phenyl)-1-(1H-pyrazol-5-yl)piperidine], the “Stability HLM % @ 30 min” value falls from 100% to 97%.

In the case of `COc1cncc(C2CCN(c3cn[nH]c3)CC2)c1` [Compound 59, 3-(1-(1H-Pyrazol-4-yl)piperidin-4-yl)-5-methoxypyridine], the “Stability HLM % @ 30 min” value is reported as 98%.

System: 20-HETE formation (CYP4) in RKM
Test: Inhibition of 20-HETE formation at 250 or 500 nM in RKM microsomal incubations
Format: biochemical, rat
Details: 500 nM compound; RKM 300 μg/ml
Method in brief: as §1

First: COc1ccc(C2CCN(c3cn[nH]c3)CC2)cc1F [Compound 44, 4-(3-Fluoro-4-methoxyphenyl)-1-(1H-pyrazol-4-yl)piperidine]
Second: COc1ccc(C2CCN(c3cn[nH]c3)CC2)c(F)c1 [Compound 47, 4-(2-Fluoro-4-methoxyphenyl)-1-(1H-pyrazol-4-yl)piperidine]
The “RKM % inh. @ 500 nM” value of the first is higher: 21.00% for the first, 0.00% for the second.

System: 20-HETE formation (CYP4) in HLM
Test: Inhibition of 20-HETE formation at 250 or 500 nM in HLM microsomal incubations
Format: biochemical, human
Details: 500 nM compound; HLM 300 μg/ml, AA 100 μM, 20 min
Method in brief: as §1

Compared with `COc1ccc(C2CCN(c3cn[nH]c3)CC2)cc1F` [Compound 44, 4-(3-Fluoro-4-methoxyphenyl)-1-(1H-pyrazol-4-yl)piperidine], `COc1ccc(C2CCN(c3cn[nH]c3)CC2)c(F)c1` [Compound 47, 4-(2-Fluoro-4-methoxyphenyl)-1-(1H-pyrazol-4-yl)piperidine] is lower in “HLM % inh. @ 500 nM” value: 85.00% for the first, 82.00% for the second.

Going from `CCS(=O)(=O)c1ccc(C2CCN(c3cn[nH]c3)CC2)cc1` [Compound 52, 4-(4-(Ethylsulfonyl)phenyl)-1-(1H-pyrazol-4-yl)piperidine] to `CCS(=O)(=O)c1ccc(C2CCN(c3ccn[nH]3)CC2)cc1` [Compound 58, 4-(4-(Ethylsulfonyl)phenyl)-1-(1H-pyrazol-5-yl)piperidine], the “HLM % inh. @ 500 nM” value falls from 84.10% to 67.40%.

In the case of `COc1cncc(C2CCN(c3cn[nH]c3)CC2)c1` [Compound 59, 3-(1-(1H-Pyrazol-4-yl)piperidin-4-yl)-5-methoxypyridine], the “HLM % inh. @ 500 nM” value is reported as 63.30%.

System: 20-HETE formation (CYP4) in HLM
Test: IC50 determination, 20-HETE formation in HLM
Format: biochemical, human
Details: HLM 300 μg/ml, AA 100 μM, 12 concentrations
Description: as §2

Going from `COc1ccc(C2CCN(c3cn[nH]c3)CC2)cc1F` [Compound 44, 4-(3-Fluoro-4-methoxyphenyl)-1-(1H-pyrazol-4-yl)piperidine] to `COc1ccc(C2CCN(c3cn[nH]c3)CC2)c(F)c1` [Compound 47, 4-(2-Fluoro-4-methoxyphenyl)-1-(1H-pyrazol-4-yl)piperidine], the IC50 rises from 0.05 µM to 0.08 µM (1.6-fold).

`CCS(=O)(=O)c1ccc(C2CCN(c3cn[nH]c3)CC2)cc1` [Compound 52, 4-(4-(Ethylsulfonyl)phenyl)-1-(1H-pyrazol-4-yl)piperidine] and `CCS(=O)(=O)c1ccc(C2CCN(c3ccn[nH]3)CC2)cc1` [Compound 58, 4-(4-(Ethylsulfonyl)phenyl)-1-(1H-pyrazol-5-yl)piperidine] are within 1.5-fold of each other in IC50: 0.08 µM for the first, 0.11 µM for the second.

`COc1cncc(C2CCN(c3cn[nH]c3)CC2)c1` [Compound 59, 3-(1-(1H-Pyrazol-4-yl)piperidin-4-yl)-5-methoxypyridine] gave an IC50 of 0.19 µM.
